Values joined by “and” are separate entries in the source; they are usually repeats but may differ in a detail not shown here. Equal values may be shown once. Marks after values point to notes of the source that are not given here.

Here are results for 4 compounds from paper PMC5490157 (DARU Journal of Pharmaceutical Sciences, 2017).

Series [1] can be described thus: Isolated perfused rat liver, single-pass perfusion with MRZ-containing Krebs-Henselit buffer, control vs MDMA-pretreated rats; perfusate analysed by HPLC. The note with it: for Mean outlet perfusate concentration at four latest samples / Metabolic ratio (metabolite concentration divided by MRZ concentration) at four latest sampling time intervals: mean ± SD; for Decrease in metabolite concentration, treatment vs control: four latest samples; for Decrease in metabolic ratio, treatment vs control: four latest sampling time intervals; for CLh (hepatic clearance) / CLint (intrinsic clearance): ±SD; for AUC(0-t) at 1 μg/ml: rat, isolated perfused rat liver (single-pass).

Series [2] has as its system CYP2D6. Details: method as in PMID 16714321. The note with it: irreversible inhibition of CYP2D6; cited from earlier work.
Series [3] deals with CYP2D6. The series is described as follows: Effect of MDMA on CYP2D6-mediated MRZ metabolism (8-OH formation) in isolated perfused rat liver. The note with it: MDMA 3 mg/kg IP 1 hour before MRZ perfusion; inferred from 8-OH formation.
In the next series the test system is CYP3A4. The series is described as follows: Effect of MDMA on CYP3A4-mediated MRZ metabolism (NDES formation) in isolated perfused rat liver. The following applies: MDMA 3 mg/kg IP 1 hour before MRZ perfusion; inferred from NDES formation.
Setting [4] is: MDMA 3 mg/kg IP 1 hour before MRZ.
Setting [5] is: control group (n = 6), MRZ inlet 1 μg/ml.
Setting [6] is: control group, individual rats 1-6, metabolite formed from MRZ 1 μg/ml.
The mark [7] stands for this setting: treatment group (MDMA 3 mg/kg IP 1 hour before), individual rats 1-6.
[8] abbreviates: treatment group (MDMA 3 mg/kg IP 1 hour before), mean (n = 6).
Setting [9] is: treatment group (n = 6), MDMA 3 mg/kg IP 1 hour before MRZ 1 μg/ml.
[10] abbreviates: treatment group (n = 6), MDMA 3 mg/kg IP 1 hour before.

In the case of `CN1CCN2c3ncc(O)cc3Cc3ccccc3C2C1` (stereo not drawn) [8-OH, 8-hydroxymirtazapine], in series [1] (setting [4]), the “Decrease in AUC (0–120) of metabolite, treatment vs control” value came out at 70%; the “Decrease in metabolite concentration, treatment vs control” value is 50%; the “Decrease in metabolic ratio, treatment vs control” value is recorded as 83%. Further, the “Mean outlet perfusate concentration at four latest samples” value (“Mean outlet perfusate concentration” below) in series [1] (setting [5]) came to 10.3 ± 3.2 ng/mL. Moreover, the “Metabolic ratio (metabolite concentration divided by MRZ concentration) at four latest sampling time intervals” value in series [1] (control group (n = 6)) was determined as 0.1 ± 0.05. The “AUC (0–120) 8-OH Control” value in series [1] (setting [6]) was 2124.9 ng·min/mL and 1398.9 ng·min/mL and 1960.2 ng·min/mL and 1674.1 ng·min/mL and 610.9 ng·min/mL and 588.2 ng·min/mL. The “AUC (0–120) 8-OH Control, MEAN” value in series [1] (control group, mean (n = 6)) is 1392.9 ng·min/mL. Also, the “AUC (0–120) 8-OH Treatment” value in series [1] (setting [7]) was 287.5 ng·min/mL and 398.6 ng·min/mL and 449.2 ng·min/mL and 415.4 ng·min/mL and 371.3 ng·min/mL and 920.5 ng·min/mL. Further, the “AUC (0–120) 8-OH Treatment, MEAN” value in series [1] (setting [8]) is reported as 473.7* ng.min/ml. Moreover, the “Mean outlet perfusate concentration” value in series [1] (setting [9]) was found to be 4.7 ± 2.9 ng/mL. Moreover, in series [1] (setting [10]), the “Metabolic ratio (metabolite concentration divided by MRZ concentration) at four latest sampling time intervals” value came out at 0.02 ± 0.008.
As for `CNC(C)Cc1ccc2c(c1)OCO2` (stereo not drawn) [MDMA, 3,4-methylenedioxymethamphetamine], the “Time after MDMA administration at which mechanism-based inhibition of most CYP2D6 isoenzymes is demonstrated” value in the series with CYP2D6 [2] is given as no more than 1 h. Moreover, the “Effect on CYP2D6 hepatic isoenzyme” value in the series on CYP2D6 [3] is given as “inhibitory effects”. Further, the “Effect on CYP3A4 hepatic isoenzyme” value in the series with CYP3A4 was “inhibitory effects”.
In general, AUC(0-t) refers to exposure summed from dosing to a finite time, without extrapolation to infinity. Turning to `CN1CCN2c3ncccc3Cc3ccccc3C2C1` (stereo not drawn) [MRZ, Mirtazapine, reference compound], the “Decrease in CLint, treatment vs control” value in series [1] (setting [4]) is reported as 60%. The “Increase in AUC (0–120) of parent drug, treatment vs control” value in series [1] (setting [4]) came out at 50%. Further, the “Mean outlet perfusate concentration” value came to 131.9 ± 56.9 ng/mL in series [1] (setting [5]) and 236.8 ± 44.7 ng/mL in series [1] (setting [9]). Besides, the “CLh (hepatic clearance)” value in series [1] (control group (n = 6), CLh=Q×E, Q 8.3 ml/min) is 7.2 ± 0.5 mL/min and 7.21 ± 0.47 mL/min; in series [1] (setting [10]), 6.3 ± 0.4 mL/min and 6.33 ± 0.37 mL/min. In addition, the “CLint (intrinsic clearance)” value is 63.4 ± 25.8 mL/min and 63.4 ± 25.81 mL/min in series [1] (control group (n = 6), CLint=E×Q/F); 27.7 ± 6.3 mL/min and 27.71 ± 6.26 mL/min in series [1] (setting [10]). In addition, the “AUC (0–120) MRZ Control” value in series [1] (control group, individual rats 1-6) is 9928.7 ng.min/ml and 16,443.6 ng.min/ml and 10,611.4 ng.min/ml and 13,295.1 ng.min/ml and 19,497.1 ng.min/ml. Moreover, the AUC(0-t) at 1 μg/ml was 237 ng·h/mL in series [1] (AUC (0–120) MRZ Control, MEAN, control group, mean (n = 6)); 259 ng·h/mL in series [1] (AUC (0–120) MRZ Control, control group, individual rats 1-6); 358 ng·h/mL in series [1] (ip, 3 mg/kg, AUC (0–120) MRZ Treatment, MEAN, treatment group (MDMA 3 mg/kg IP 1 hour before), mean (n = 6)); 401 ng·h/mL in series [1] (ip, 3 mg/kg, AUC (0–120) MRZ Treatment, treatment group (MDMA 3 mg/kg IP 1 hour before), individual rats 1-6). Further, the “AUC (0–120) MRZ Treatment” value in series [1] (setting [7]) is 18,031.1 ng.min/ml and 17,675.6 ng.min/ml and 23,553.7 ng.min/ml and 23,063.4 ng.min/ml and 22,680.5 ng.min/ml.
Take `c1ccc2c(c1)Cc1cccnc1N1CCNCC21` (stereo not drawn) [NDES, N-desmethylmirtazapine]: in series [1] (setting [4]), the “Decrease in AUC (0–120) of metabolite, treatment vs control” value was found to be 60%; the “Decrease in metabolite concentration, treatment vs control” value turned out to be 50%; the “Decrease in metabolic ratio, treatment vs control” value is on record as 79%. For the same compound, in series [1] (setting [5]), the “Mean outlet perfusate concentration” value is 188.6 ± 63.44 ng/mL. For the same compound, in series [1] (control group (n = 6)), the “Metabolic ratio (metabolite concentration divided by MRZ concentration) at four latest sampling time intervals” value came to 1.7 ± 0.8. Further, in series [1] (setting [6]), the “AUC (0–120) NDES Control” value was 28,525.2 ng.min/ml and 22,505.4 ng.min/ml and 15,171.6 ng.min/ml and 18,839.8 ng.min/ml and 11,195.2 ng.min/ml and 12,075.7 ng.min/ml. In series [1] (control group, mean (n = 6)), the “AUC (0–120) NDES Control, MEAN” value is given as 18,052.1 ng.min/ml. Moreover, the “AUC (0–120) NDES Treatment” value in series [1] (setting [7]) is 593.7 ng.min/ml and 12,111.8 ng.min/ml and 15,346.2 ng.min/ml and 5860.1 ng.min/ml and 10,613.3 ng.min/ml and 3605.2 ng.min/ml. Besides, in series [1] (setting [8]), the “AUC (0–120) NDES Treatment, MEAN” value is reported as 8021.7* ng.min/ml. For the same compound, the “Mean outlet perfusate concentration” value in series [1] (setting [9]) came out at 98.5 ± 64.3 ng/mL. Also, the “Metabolic ratio (metabolite concentration divided by MRZ concentration) at four latest sampling time intervals” value in series [1] (setting [10]) is given as 0.45 ± 0.3.
